Laboratory results reported in ChEMBL document CHEMBL1136793, “First dual aromatase-steroid sulfatase inhibitors” (J Med Chem, 2003).
The source made the active and inactive calls. The calls are words filed in the database; no cut-off is given here.

Legend:
[1] = molecular target: T1, Steryl-sulfatase (Homo sapiens) (UniProt P08842); settings: 3.3 nM
T1 sequence (whole entry): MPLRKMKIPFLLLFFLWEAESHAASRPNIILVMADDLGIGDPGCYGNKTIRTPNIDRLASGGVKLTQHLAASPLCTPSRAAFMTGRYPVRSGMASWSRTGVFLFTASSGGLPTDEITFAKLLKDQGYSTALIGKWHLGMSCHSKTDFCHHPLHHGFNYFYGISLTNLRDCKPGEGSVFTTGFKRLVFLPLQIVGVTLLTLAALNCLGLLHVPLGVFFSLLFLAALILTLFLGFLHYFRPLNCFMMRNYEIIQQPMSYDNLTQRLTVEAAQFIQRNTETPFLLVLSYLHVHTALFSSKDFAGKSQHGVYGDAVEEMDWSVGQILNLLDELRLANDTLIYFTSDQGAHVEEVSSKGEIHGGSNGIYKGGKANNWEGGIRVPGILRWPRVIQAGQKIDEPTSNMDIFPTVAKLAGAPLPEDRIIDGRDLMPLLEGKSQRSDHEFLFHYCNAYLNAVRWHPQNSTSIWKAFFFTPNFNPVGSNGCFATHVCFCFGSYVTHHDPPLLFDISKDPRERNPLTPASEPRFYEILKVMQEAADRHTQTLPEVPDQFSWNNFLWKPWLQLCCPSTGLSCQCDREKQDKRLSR
Description: In vitro inhibition of [6,7-3H]E1S binding to steroid sulfatase in JEG-3 human placental carcinoma cells at 3.3 nM

Aromatase [2] = molecular target: T2, Aromatase (Homo sapiens, UniProt P11511); assay: Percent reduction in aromatase P450 19A1 binding inhibition after JEG-3 cell pretreatment at 1 uM (from 86.5+/-1.4% to 23+/-1%); format: cell-based; settings: jeg-3, 1 µM
T2 sequence (P11511 whole entry): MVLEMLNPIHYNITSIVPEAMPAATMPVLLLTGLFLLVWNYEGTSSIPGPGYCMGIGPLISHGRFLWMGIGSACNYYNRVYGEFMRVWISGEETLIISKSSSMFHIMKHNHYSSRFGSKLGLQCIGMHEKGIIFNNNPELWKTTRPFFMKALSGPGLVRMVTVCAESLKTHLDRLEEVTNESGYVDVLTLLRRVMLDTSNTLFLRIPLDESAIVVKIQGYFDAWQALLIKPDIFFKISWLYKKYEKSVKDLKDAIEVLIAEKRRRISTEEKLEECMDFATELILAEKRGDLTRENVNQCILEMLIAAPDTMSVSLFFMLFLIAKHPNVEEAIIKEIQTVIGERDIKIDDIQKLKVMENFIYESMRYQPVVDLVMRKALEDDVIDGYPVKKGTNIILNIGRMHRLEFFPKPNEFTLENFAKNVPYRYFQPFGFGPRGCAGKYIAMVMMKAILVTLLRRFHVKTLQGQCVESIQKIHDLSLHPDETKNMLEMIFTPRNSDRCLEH

[3] = molecular target: T1, Steryl-sulfatase (Homo sapiens); settings: JEG-3, 1 uM
[4] = molecular target: T1, Steryl-sulfatase (Homo sapiens); assay: In vitro inhibition of [6,7-3H]E1S binding to steroid sulfatase in JEG-3 human placental carcinoma cells; Not active
Aromatase [5] = molecular target: T2, Aromatase
Description: In vitro inhibition of [1-beta-3H]-androstenedione binding to Cytochrome P450 19A1 of JEG-3 human placental carcinoma cells

NS(=O)(=O)Oc1ccc2c3c(c(=O)oc2c1)CCCCC3
inhibition [1]: 50%

N#Cc1ccc(N(Cc2ccc(OS(N)(=O)=O)cc2)n2cnnc2)cc1
Reduction (Aromatase [2]): 63.5%
NS [3]: inactive

N#Cc1ccc(N(Cc2ccc(Br)cc2)n2cnnc2)cc1
NA [4]: inactive
IC50 (Aromatase [5]): 500 pM
